# Laboratory results reported in patent US20100305201A1 (The Trustees of the University of Pennsylvania, priority 2006, published 2010).
# Key:
# [1] = Maximum tolerated dose (MTD) determination; details: nude mice, dose that causes 10% weight loss within 24 h (Example 3)
# [2] = test system: Human lung-derived carcinoma cells A549; assay: Cytotoxicity assay (MTT); format: cell-based; details: 72 h, sigmoid dose-response fit
# Procedure: Cytotoxicity Assay. TAX-loaded and drug-free micelles at serial dilutions were prepared as above. For comparison, 12 mg/ml TAX in ethanol was mixed with an equal volume of Cremophor® EL followed by sonication for 30 min. The resulting Cremophor EL TAX was diluted with DPBS to obtain desired TAX concentrations. Human lung-derived carcinoma cells A549 were grown in F12 Ham media supplemented with 10% fetal bovine serum and 100 U/ml penicillin and 100 μg/ml streptomycin at 37° C., 5% CO2 to 60-70% confluence. A549 cells (50,000 cell/ml) were seeded in 96-well plates at 5,000 cells per well and cultured for 24 h to allow attachment. […] As control, […] of DPBS was added to cells not exposed to those formulations. After 37° C., 5% CO2 incubation for 72 h, the media were discarded, and 100 μl/well F12 Ham medium and 11 μl/well of 5 mg/ml MTT solution in DPBS was added. The plates were incubated at 37° C. for 3 h and the media were removed again. The intracellular metabolized product MTT formazan was retrieved by addition of 100 μl/well DMSO and incubation at room temperature for 5 min. The plates were read at 550 nm, and the cell viability was calculated as (reading of wells with cells exposed to tested formulations minus the reading of the blank wells) divided by (reading of wells with cells exposed to DPBS minus the reading of the blank wells).
# Data Analysis. […]
# [3] = in vivo; details: Nrc nude, mouse
# Procedure: Nrc nude mice were weighed followed by a single tail vein injection of either empty OCL3 micelles and TAX-loaded micelles in different concentrations at 0.2 ml per mouse. After 24 hours, the mice were weighed again. The “maximum tolerated dose” (MTD) was determined to be, and defined as, the dose that caused the mouse body weight loss<10%.
# [4] = test system: lung carcinoma A549 tumors; assay: Tumor shrinkage study, multiple injections; format: in vivo, mice
# Procedure: Tumor shrinkage studies. Human lung carcinoma cell line, A549, was injected subcutaneously at […] per mouse. […] The same injections were repeated after 3, 7, 10, 14, 17 and 21 days. Tumor area (A) was monitored 24 hrs after each injection by measuring two orthogonal dimensions as A=[(L1×L2)/2] for each treatment group. The body weight of the mice was also monitored throughout the experiment.
# The tumor shrinkage effect of different carriers was also examined in a multiple-injection experiment. […] TAX in DPBS solution was also used for comparison, with the MTD of 1 mg/kg injected. […] It should be noted here that the weight gaining due to tumor growth (if possible) for all groups was minimal, wherein the largest tumor area gained after 3 weeks was 0.4 cm^2 (FIG. 6A), corresponding to an approximate volume of 0.2 cm^3 (assuming the tumor was spherical in shape). This would have contributed to only 0.2 g of the total weight (assuming the density of tumor is 1 g/ml).
# To evaluate the tumor inhibition effect of the different TAX delivery methods in a more quantitative way, the TAX-inhibited tumor growth vs. time plot was fit by applying an exponential model (Simeoni et al., Cancer Res. 64:1094-101 (2004)), incorporating both a tumor growth phase and a tumor shrinkage phase with the TAX addition. The modeling was performed by fit the parameters in the equation (Table 4):
# Tumor Area=Σ Ae^t/growth+Be^−t/shrink Equation 7
# where t is the time (day), A and tgrowth are constants of the tumor growth phase, and B and tshrink are constants of the TAX-inhibition phase.
# [5] = test system: A549 tumor xenografts; assay: Tumor study with single tail-vein injection (Example 3); details: one week after single injection, 1 mg kg^−1 in ethanol (MTD)
# Procedure: Briefly, cultured cells were injected subcutaneously onto the backs of nude mice and allowed to grow until they reached a mean size of 0.52 cm^2 (±0.02 em^2). […] Each group consisted of four mice.
# [6] = exponential model of TAX-inhibited A549 tumor area vs time, injections at MTD
compound,measurement,setting,value
"CC(=O)O[C@H]1C(=O)[C@@]2(C)[C@H]([C@H](OC(=O)c3ccccc3)[C@]3(O)C[C@H](OC(=O)[C@H](O)[C@@H](NC(=O)c4ccccc4)c4ccccc4)C(C)=C1C3(C)C)[C@]1(OC(C)=O)CO[C@@H]1C[C@@H]2O [TAX, Paclitaxel]",maximum tolerated dose (MTD),[1],1 mg/kg
same,IC50,[2],321 nM
same,MTD at 24 h,[3],1 mg/kg
same,tumor growth inhibition (in words),"[4]; A549-bearing mice, multiple injections at MTD, 22 days",modest inhibition of tumor growth
same,"A, constant of the tumor growth phase",[4]; [6],0.014 cm^2
same,"B, constant of the TAX-inhibition phase",[4]; [6],0.178 cm^2
same,"tgrowth, constant of the tumor growth phase",[4]; [6],1.2 week
same,"tshrink, constant of the TAX-inhibition phase",[4]; [6],8.8 week
same,apoptosis in tumor (TUNEL-stained tumor sections),[5],little effect
